This is an account of results in patent publication US9539176B2 (BAYER PHARMA AKTIENGESELLSCHAFT, priority 2012, dated 2017).

The data set can be described thus: comparative stress test of the active coating suspension (60° C., 48 hours, HPLC). Format: physicochemical. The method, then:
The chemical stability of the coating suspension was verified by a comparative stress test: micronized candersartan cilexetil as a solid, an aqueous suspension of micronized candesartan cilexetil, and aqueous suspensions of micronized candesartan cilexetil together with Opadry II 85F19250 Clear in three different ratios were stored at 60° C. for 48 hours. The percentage of the stability indicating impurity Desethyl-Candesartan cilexetil was determined via HPLC. The same batch of micronized candesartan cilexetil has been used for all samples.

With `CCOc1nc2cccc(C(=O)OC(C)OC(=O)OC3CCCCC3)c2n1Cc1ccc(-c2ccccc2-c2nnn[nH]2)cc1` (centres unmarked) [micronized candesartan cilexetil (solid), candesartan cilexetil], the “Desethyl-Candesartan cilexetil, start” value (start, before storage) came to 0.11%. Besides, for the setting “stored at 60° C. for 48 hours”, the “Desethyl-Candesartan cilexetil, 48 hours” value came to 0.41%.
